Data published in patent publication US6787161B2, “Anti-cancer compounds” (Peplin Biotech Pty. Ltd., priority 1997, dated 2004).

Assays:
MM96L cells = assay: Effect of betaines on MM96L cell numbers; assay type: cell-based, human; parameters: key to cell numbers rating and morphology: +++ = no effect; − = complete cell death; *d = indicates change to dendritic morphology of the cells; conditions: 4 days
Method: Betaines of different types were solubilised in sterile MilliQ™ water to a final concentration of 1 mg/ml, and diluted into 0.1 ml tissue culture medium containing 5000 MM96L cells as described previously. Cells were scored after 4 days incubation.

MM96L melanoma cell line = assay: MM96L assay of chromatographic fractions (cell inhibition, reversion to dendritic appearance); assay type: cell-based, human; conditions: at 1 in 5×10^6 dilution
Method: Fractions were dried by vacuum centrifugation, reconstituted in 500 μl PBS, and assayed against MM96L cells and in the metallothionein reporter assay as described above. Fractions 13 to 28 all induced complete reversion of MM96L cells to a dendritic appearance, but cell death was not observed. The effect was much more striking in the reporter assay, in which activity was still observed at a dilution of 1/10,000 (i.e. at a final concentration in the culture of 1/100,000).
Fractions 14 and 15 from the HPLC subfractionation described in Example 7 and FIG. 3 were further purified by repeated chromatography, selecting the dominant symmetrical peak with constant diode array spectra (e.g. fractions 14 and 15; results for fraction 14 are shown in FIGS. 4 and 5). Activity of the purified fractions in causing reversion of MM96L to the dendritic appearance was confirmed by cell assay.
(a) The ether-soluble fraction, prepared as in Example 7, was reconstituted in ethylene glycol dimethyl ether (DME) and chromatographed on 20×20 cm silica gel plates, using chloroform:ethyl acetate (82:18) as the developing solvent (FIG. 7). The plate was viewed on a UV light box and the UV positive bands were identified, excised from the gel, eluted with DME, and tested for inhibitory activity and morphology reversal against MM96L melanoma cell line. […]

Molecule | final concentration at which cell numbers were depressed or inhibited (MM96L cells) | cell numbers rating and morphology (MM96L cells; dilution 1/50 of 1 mg/ml) | cell numbers rating and morphology (MM96L cells; dilution 1/500 of 1 mg/ml) | cell numbers rating and morphology (MM96L cells; dilution 1/5,000 of 1 mg/ml) | final concentration active in reversion to complete dendritic morphology (MM96L melanoma cell line)
C[N+](C)(C)CCC(=O)O.[Cl-] [β-alanine betaine hydrochloride] | 20 µg/mL | ++d | +++ | +++ | 
C[N+]1(C)C[C@H](O)C[C@H]1C(=O)[O-] [t-4 hydroxy N,N-dimethyl proline] | 20 µg/mL | +pd | +++ | +++ | 
C[N+]1(C)CCC[C@H]1C(=O)[O-] [stachydrine (proline betaine), free base, stachydrine (proline betaine)] |  | +++ | +++ | +++ | 
CN1CC[C@@H](O)[C@@H]1C(=O)O [t-3-hydroxy N-methyl proline, free base, t-3-hydroxy N-methyl proline] |  | +++ | +++ | +++ | 
20-acetyl-ingenol-3-angelate |  |  |  |  | 1 ng/ml
C[N+](C)(C)CC(=O)[O-] [glycine betaine] |  | +++ | +++ | +++ | 
CN1CCC[C@H]1C(=O)O [N-methyl proline, free base, N-methyl proline] |  | +++ | +++ | +++ | 
CN1C[C@@H](O)C[C@@H]1C(=O)O [t-4-hydroxy N-methyl proline, free base, t-4-hydroxy N-methyl proline] |  | +++ | +++ | +++ | 
